Patent publication US20220160804A1, “USE OF LAURUS NOBILIS EXTRACT FRACTIONS TO PROTECT AGAINST AIR POLLUTION RELATED DISEASES” (DSM IP Assets B.V., priority 2019, published 2022)

Columns and labels:
[1] = system: Nrf2; assay: Luciferase reporter assay using H4IIE-ARE8L cells (Nrf2 activation); format: cell-based, rat; conditions: R-sulforaphane Conc. Final 4.55 μg/ml as printed, concentrations of fractions not given, DMSO 0.45 % control 2921
Description: PloS One. 2012; 7 (5): e36774). […] The media was exchanged every two to three-days. The DMEM assay medium used charcoal treated FBS ([…] transactivation assay was performed in 96 well plates. The plates were seeded with approximately 40,000 cells per well in 100 μ[…] and incubated over night at 37° C. Then the test compounds were diluted in […] and given to the cells as described below. The cells were incubated for at least further 16 h at 37° C. and 5% CO2. Cells were equilibrated to room temperature. Lysis of the cells was done by adding 100 μL lysis solution, Steady-Glo® luciferase buffer according to the manufacturer (Promega) containing 0.5 mM DTT per well and incubated for 10 min at room temperature with gentle shaking. The luminescence was measured within 2 hours after incubation on a luminometer (Mithras, Berthold Technologies). […] We used a rat hepatoma cell line that was stably transfected with a construct that contains eight tandem ARE elements in front of a luciferase reporter gene ([…], et al 2012. PloS One. 2012; 7(5):e36774). All extracts, fractions and pure compounds were tested for concentrations that induce toxicity. Non-toxic concentrations were then selected for treating cells as describes in the methods section.

[2] = system: IL-6; assay: IL-6 secretion of BEAS-2B cells treated with Diesel Particulate Matter; format: cell-based, human; conditions: for IL-6 % of PM + DMSO: PM + DMSO = 100
Excerpt: (§1) The human bronchial epithelial cell line BEAS-2B was from ATCC (American Type Culture Collection, Manassas, Va.) and cultured in Bronchial Epithelial cell Growth Medium (BEGM, Lonza, Wakersville, Md.) in CellBIND® surface plastic flasks (Corning Inc., Corning, N.Y.). The adenocarcinomic human alveolar basal epithelial A549 cell line was obtained from ATCC and cultured in Kaighn's Modification of Ham's F-12 Medium (F-12K medium) (Life Technologies, USA), supplemented with 10% FBS (Sigma, Saint-Louis, Mo.). These cells were cultured at 37° C. in a humidified atmosphere containing 5% CO2.
BEAS-2B cells were seeded in 12-well CellBIND® surface culture plates (Corning Inc.) at 3 to 4×10^5 cells per well. A549 cells were seeded in 12-well plates at 2×10^5 cells per well.
Diesel Particulate Matter (Standard Reference Material SRM 1650b, National Institute of Standards & Technology, NIST, Gaithersburg, Md.) at 80 mg/ml DMSO (100%) were sonicated for 5 min and thereafter diluted 400 fold in medium. This dilution was twofold further diluted for the assay.
(§2) After 24 h, cells were treated with the diluted Diesel Particulate Matter at 100 μg/ml and in the presence of different concentrations of Laurus Extracts, other plant extracts, fractions and compounds as indicated. The final DSMO concentrations were 0.175%. Untreated cells or cells treated with 0.175% DMSO were used as controls. After 24 h, cell supernatants were collected. The concentrations of IL-6 and IL-8 in the supernatants were determined by Luminex kits (BIO-RAD Laboratories, Hercules, Calif.) and used in the LiquiChip Workstation IS 200 (Qiagen, Hilden, Germany). The data were evaluated with the LiquiChip Analyser software (Qiagen).
Mean values, standard deviation and p-values with Student's t-test were calculated with Excel. P-values […] 0.05 were considered as indication for significance.

[3] = system: IL-8; assay: IL-8 secretion of A549 cells treated with Diesel Particulate Matter; format: cell-based, human; conditions: Table 5, LPS 10 μg/mL
Excerpt: as §1
(§3) BEAS-2B cells were seeded in 12-well CellBIND® surface culture plates (Corning Inc.) at 3 to 4×10^5 cells per well. A549 cells were seeded in 12-well plates at 2×10^5 cells per well. […]
as §2, with “The final DSMO concentrations were 0.175%. Untreated cells or cells treated with 0.175% DMSO were used as controls. After 24 h, cell supernatants were collected.” left out
(§4) Mean values, standard deviation and p-values with Student's t-test were calculated with Excel. […]

[4] = system: IL-6; assay: IL-6 secretion of A549 cells treated with Diesel Particulate Matter; format: cell-based, human; conditions: Table 4, LPS 10 μg/mL
Excerpt: as §1, §3
as §2, with “The final DSMO concentrations were 0.175%. Untreated cells or cells treated with 0.175% DMSO were used as controls. After 24 h, cell supernatants were collected.” left out
as §4

Compound | Nrf-2 activity, Average [1] | IL-6 induction relative to PM and DMSO ([2]; LPS 10 μg/mL versus PM + DMSO (Table 2)) | IL-6 ([2]; Table 2, LPS 10 μg/mL, 24 h) [pg/mL] | IL-6 % of PM + DMSO ([2]; Table 2, LPS 10 μg/mL, 24 h) [%] | IL-6 ([2]; Table 3, LPS 10 μg/mL, 24 h) [pg/mL] | IL-6 % of PM + DMSO ([2]; Table 3, LPS 10 μg/mL) [%] | IL-8 ([3]; 24 h) [pg/mL] | IL-8 % of PM + DMSO ([3]; PM + DMSO = 100) [%] | IL-6 ([4]; 24 h) [pg/mL] | IL-6 % of PM + DMSO ([4]; PM + DMSO = 100) [%]
C[S+]([O-])CCCCN=C=S (stereo not shown) [R-Sulforaphane, R-sulforaphane] | 13233 relative units of luciferase fluorescence | – | – | – | – | – | – | – | – | –
Lipopolysaccharide [LPS] | – | over 40 times | 3760 | 4482 | 6477 | 10612 | 406 | 140 | 19.6 | 45
